From patent publication US20260262643A1, “HERBICIDAL BENZOXAZINES” (FMC CORPORATION, priority 2022, published 2026)

How the values were obtained:
[1] = test system: soybean; assay: Test C preemergence; type: in vivo, Glycine max
Procedure, shortened: (§1)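 Seeds in loam–sand blend received preemergence directed soil spray of test chemicals in non-phytotoxic solvent with surfactant; postemergence treatment was applied at one- to two-leaf stage (2–10 cm). After 10 days in greenhouse, injury rated visually versus untreated controls, 0 (no effect) to 100 (complete control).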

[2] = test system: barnyardgrass; assay: Test C postemergence; type: in vivo, Echinochloa crusgalli; conditions: 10 days, 0 to 100 scale (0 no effect, 100 complete control)
Procedure, shortened: as §1

[3] = test system: oat, wild; assay: Test C preemergence; type: in vivo, Avena fatua
Procedure, shortened: as §1

[4] = test system: wheat; assay: Test C postemergence; type: in vivo, Triticum aestivum; conditions: 10 days, 0 to 100 scale (0 no effect, 100 complete control)
Procedure, shortened: as §1

[5] = test system: galium; assay: Test C postemergence; type: in vivo, Galium aparine; conditions: 10 days, 0 to 100 scale (0 no effect, 100 complete control)
Procedure, shortened: as §1

[6] = test system: green foxtail; assay: Test C postemergence; type: in vivo, Setaria viridis; conditions: 10 days, 0 to 100 scale (0 no effect, 100 complete control)
Procedure, shortened: as §1

[7] = test system: sedge, umbrella; assay: Test D flooded paddy test; type: in vivo, Cyperus difformis; conditions: 250 g ai/ha, applied to paddy water, visual rating after 13 to 14 days, scale 0 to 100 (0 no effect, 100 complete control)
Procedure, shortened: (§2)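 Seedlings reached the 2-leaf stage, then pots were flooded to 3 cm over the soil surface. Compound was applied into the water, depth was maintained, and plants stayed in the greenhouse 13 to 14 days before visual scoring (0–100) relative to controls.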

[8] = test system: ryegrass, Italian; assay: Test C postemergence; type: in vivo, Lolium multiflorum; conditions: 10 days, 0 to 100 scale (0 no effect, 100 complete control)
Procedure, shortened: as §1

[9] = test system: kochia; assay: Test C preemergence; type: in vivo, Bassia scoparia
Procedure, shortened: as §1

[10] = test system: ragweed; assay: Test C postemergence; type: in vivo, Ambrosia artemisiifolia; conditions: 10 days, 0 to 100 scale (0 no effect, 100 complete control)
Procedure, shortened: as §1

[11] = test system: green foxtail; assay: Test C preemergence; type: in vivo, Setaria viridis
Procedure, shortened: as §1

[12] = test system: pigweed, palmer; assay: Test C preemergence; type: in vivo, Amaranthus palmeri
Procedure, shortened: as §1

[13] = test system: barnyardgrass; assay: Test C preemergence; type: in vivo, Echinochloa crusgalli
Procedure, shortened: as §1

[14] = test system: corn; assay: Test C preemergence; type: in vivo, Zea mays
Procedure, shortened: as §1

[15] = test system: wheat; assay: Test C preemergence; type: in vivo, Triticum aestivum
Procedure, shortened: as §1

[16] = test system: corn; assay: Test C postemergence; type: in vivo, Zea mays; conditions: 10 days, 0 to 100 scale (0 no effect, 100 complete control)
Procedure, shortened: as §1

[17] = test system: blackgrass; assay: Test C postemergence; type: in vivo, Alopecurus myosuroides; conditions: 10 days, 0 to 100 scale (0 no effect, 100 complete control)
Procedure, shortened: as §1

[18] = test system: rice; assay: Test D flooded paddy test; type: in vivo, Oryza sativa; conditions: 250 g ai/ha, applied to paddy water, visual rating after 13 to 14 days, scale 0 to 100 (0 no effect, 100 complete control)
Procedure, shortened: as §2

[19] = test system: ryegrass, Italian; assay: Test C preemergence; type: in vivo, Lolium multiflorum
Procedure, shortened: as §1

[20] = test system: oat, wild; assay: Test C postemergence; type: in vivo, Avena fatua; conditions: 10 days, 0 to 100 scale (0 no effect, 100 complete control)
Procedure, shortened: as §1

[21] = test system: ragweed; assay: Test C preemergence; type: in vivo, Ambrosia artemisiifolia
Procedure, shortened: as §1

[22] = test system: soybean; assay: Test C postemergence; type: in vivo, Glycine max; conditions: 10 days, 0 to 100 scale (0 no effect, 100 complete control)
Procedure, shortened: as §1

[23] = test system: blackgrass; assay: Test C preemergence; type: in vivo, Alopecurus myosuroides
Procedure, shortened: as §1

[24] = test system: horseweed; assay: Test C postemergence; type: in vivo, Erigeron canadensis; conditions: 10 days, 0 to 100 scale (0 no effect, 100 complete control)
Procedure, shortened: as §1

[25] = test system: barnyardgrass; assay: Test D flooded paddy test; type: in vivo, Echinochloa crus-galli; conditions: 250 g ai/ha, applied to paddy water, visual rating after 13 to 14 days, scale 0 to 100 (0 no effect, 100 complete control)
Procedure, shortened: as §2

[26] = test system: kochia; assay: Test C postemergence; type: in vivo, Bassia scoparia; conditions: 10 days, 0 to 100 scale (0 no effect, 100 complete control)
Procedure, shortened: as §1

[27] = test system: pigweed, palmer; assay: Test C postemergence; type: in vivo, Amaranthus palmeri; conditions: 10 days, 0 to 100 scale (0 no effect, 100 complete control)
Procedure, shortened: as §1

[28] = test system: ducksalad; assay: Test D flooded paddy test; type: in vivo, Heteranthera limosa; conditions: 250 g ai/ha, applied to paddy water, visual rating after 13 to 14 days, scale 0 to 100 (0 no effect, 100 complete control)
Procedure, shortened: as §2

[29] = 500 g ai/ha, preemergence, 0 to 100 scale (0 no effect, 100 complete control)
[30] = Preemergence, 125 g ai/ha, 0 to 100 scale, 0 no effect, 100 complete control

With COC(C)c1ncn(-c2ccc(C)c(C(=O)N3CC(C)Oc4c(Cl)cccc43)c2)n1 (mixture of isomers) [Compound 359] the “Soybean plant response rating” value [1, 29] was 100, the “Plant response rating, Soybean” value [1, 30] was 80 and the “Plant response rating, Barnyardgrass” value ([2]; 500 g ai/ha, postemergence) was 90. For the same molecule, the “Plant response rating, Barnyardgrass” value ([2]; Postemergence, 125 g ai/ha) was 30, the “Oat, Wild plant response rating” value [3, 29] was 90 and the “Plant response rating, Oat, Wild” value [3, 30] was 90. The “Plant response rating, Wheat” value ([4]; 500 g ai/ha, postemergence) was 90, the “Plant response rating, Wheat” value ([4]; Postemergence, 125 g ai/ha) was 30 and the “Plant response rating, Galium” value ([5]; 500 g ai/ha, postemergence) was 100. The “Plant response rating, Galium” value ([5]; Postemergence, 125 g ai/ha) was 100, the “Plant response rating, Foxtail, Green” value ([6]; 500 g ai/ha, postemergence) was 80 and the “Plant response rating, Foxtail, Green” value ([6]; Postemergence, 125 g ai/ha) was 50. The “Plant response rating, Sedge, Umbrella (Flood)” value [7] was 65, the “Plant response rating, Ryegrass, Italian” value ([8]; 500 g ai/ha, postemergence) was 100 and the “Plant response rating, Ryegrass, Italian” value ([8]; Postemergence, 125 g ai/ha) was 90. For the same molecule, the “Kochia plant response rating” value [9, 29] was 100, the “Plant response rating, Kochia” value [9, 30] was 100 and the “Plant response rating, Ragweed” value ([10]; 500 g ai/ha, postemergence) was 80. The “Plant response rating, Ragweed” value ([10]; Postemergence, 125 g ai/ha) was 60, the “Foxtail, Green plant response rating” value [11, 29] was 100 and the “Plant response rating, Foxtail, Green” value [11, 30] was 100. The “Pigweed, Palmer plant response rating” value [12, 29] was 100, the “Plant response rating, Pigweed, Palmer” value [12, 30] was 90 and the “Barnyardgrass plant response rating” value [13, 29] was 100. For the same molecule, the “Plant response rating, Barnyardgrass” value [13, 30] was 100, the “Corn plant response rating” value [14, 29] was 30 and the “Plant response rating, Corn” value [14, 30] was 20. For the same molecule, the “Wheat plant response rating” value [15, 29] was 80, the “Plant response rating, Wheat” value [15, 30] was 30 and the “Plant response rating, Corn” value ([16]; 500 g ai/ha, postemergence) was 80. The “Plant response rating, Corn” value ([16]; Postemergence, 125 g ai/ha) was 40, the “Plant response rating, Blackgrass” value ([17]; 500 g ai/ha, postemergence) was 100 and the “Plant response rating, Blackgrass” value ([17]; Postemergence, 125 g ai/ha) was 60. The “Plant response rating, Rice (Flood)” value [18] was 10, the “Ryegrass, Italian plant response rating” value [19, 29] was 100 and the “Plant response rating, Ryegrass, Italian” value [19, 30] was 90. The “Plant response rating, Oat, Wild” value ([20]; 500 g ai/ha, postemergence) was 90, the “Plant response rating, Oat, Wild” value ([20]; Postemergence, 125 g ai/ha) was 60 and the “Ragweed plant response rating” value [21, 29] was 100. For the same molecule, the “Plant response rating, Ragweed” value [21, 30] was 0, the “Plant response rating, Soybean” value ([22]; 500 g ai/ha, postemergence) was 100 and the “Plant response rating, Soybean” value ([22]; Postemergence, 125 g ai/ha) was 100. The “Blackgrass plant response rating” value [23, 29] was 100, the “Plant response rating, Blackgrass” value [23, 30] was 80 and the “Plant response rating, Horseweed” value ([24]; 500 g ai/ha, postemergence) was 90. The “Plant response rating, Horseweed” value ([24]; Postemergence, 125 g ai/ha) was 70, the “Plant response rating, Barnyardgrass (Flood)” value [25] was 15 and the “Plant response rating, Kochia” value ([26]; 500 g ai/ha, postemergence) was 80. For the same molecule, the “Plant response rating, Kochia” value ([26]; Postemergence, 125 g ai/ha) was 50, the “Plant response rating, Pigweed, Palmer” value ([27]; 500 g ai/ha, postemergence) was 100 and the “Plant response rating, Pigweed, Palmer” value ([27]; Postemergence, 125 g ai/ha) was 60. For the same molecule, the “Plant response rating, Ducksalad (Flood)” value [28] was 60.
